Laboratory results reported in patent US7964642B2, “Vanilloid TRPV1 receptor antagonists” (Pharmeste S.R.L., priority 2004, dated 2011).

Columns and labels:
vanilloid TRPV1 receptor [1] = target: T1, vanilloid TRPV1 receptor (Rattus norvegicus, UniProt O35433); assay: Ca2+ fluorescence measurements in cultured rat trigeminal ganglia neurons: inhibition of capsaicin-induced calcium mobilisation; type: cell-based; details: capsaicin 0.1 μM; for IC50: 10 minutes pre-incubation, mean and 95% fiducial limits, read-out: IC50 inhibiting capsaicin-evoked [Ca2+]i mobilization; for concentration giving complete inhibition of the response to capsaicin / threshold concentration that produced an inhibitory effect: compounds incubated 10 minutes prior to capsaicin challenge
T1 construct: rat trigeminal neuronal cells, that therefore were identified as TRPV1 expressing neurons; endogenous in cells; host or cells: primary trigeminal ganglion neurons from 2-day-old Sprague-Dawley rats
Protocol: Ca^2+ Fluorescence Measurements in Cultured Rat Trigeminal Ganglia
Newborn rats (2 days old) were terminally anaesthetized and decapitated. Trigeminal ganglia were removed and rapidly placed in a cold phosphate buffered solution (PBS) before being transferred to collagenase/dispase (1 mg/ml dissolved in Ca^2+-Mg^2+-free PBS) for 35 min. at 37° C.^4.
After the enzymatic treatment the ganglia were rinsed three times with Ca^2+-Mg^2+-free PBS and then placed in 2 ml of cold DMEM supplemented with 10% foetal bovine serum (FBS, heat inactivated), 2 mM L-glutamine, 100 μ/ml penicillin and […] streptomycin. The ganglia were then dissociated into single cells by several passages through a series of syringe needles (23 G down to 25 G). Finally, the medium and ganglia cells sieved through a […] filter to remove debris and taken up with 8 ml of DMEM medium and centrifuged (200×g for 5 min.). The final cell pellet was re-suspended in DMEM medium (supplemented with 100 ng/ml mouse Nerve Growth Factor (mouse-NGF-7S) and cytosine-β-D-arabino-furanoside free base (ARA-C) […]). The cells were plated on poly-L-lysine (8.3 mM) and laminin (5 mM) coated 25 mm glass cover slips and kept for 2 to 5 days at 37° C. in a humidified incubator gassed with 5% CO2 and air. Plated neurons were loaded with Fura-2-AM-ester (3 μM) in Ca^2+ buffer solution of the following composition (mM): CaCl2 1.4, KCl 5.4, MgSO4 0.4, NaCl 135, D-glucose 5, HEPES 10 with BSA 0.1%, at pH 7.4, for 40 min at 37° C., washed twice with the Ca^2+ buffer solution and transferred to a chamber on the stage of a Nikon eclipse TE300 microscope. The dye was excited at 340 and 380 nm to indicate relative [Ca^2+]i changes by the F340/F380 ratio recorded with a dynamic image analysis system (Laboratory Automation 2.0, RCS, Florence, Italy). Capsaicin (0.1 μM) and ionomycin (5 μM) were added to the chamber. A calibration curve using a buffer containing Fura-2-AM-ester and determinant concentrations of free Ca^2+ was used to convert the obtained data from F340/F380 ratio to [Ca^2+]i (nM)^5.
The effects of Ia, Ib and Ic were tested against capsaicin-induced calcium mobilisation; Ia, Ib and Ic were incubated for 10 minutes prior to the capsaicin challenge. The inhibitory effect of the reference TRPV1 antagonist, capsazepine, was also tested.

[2] = tested on: rat trigeminal neuronal cells; assay: Ca2+ fluorescence measurements in cultured rat trigeminal ganglia neurons: KCl-evoked [Ca2+]i mobilization; type: cell-based; details: 5 mM KCl
vanilloid TRPV1 receptor [3] = target: T1, vanilloid TRPV1 receptor; assay: Wiping test in rats (capsaicin-induced wiping movements); type: in vivo; details: intraperitoneal; for effect on capsaicin-induced wiping in rats: 15 minutes prior to capsaicin challenge; for ED50 capsaicin-induced wiping: 15 minutes prior to capsaicin challenge (capsaicin 0.1%, 50 μl on conjunctiva), mean and 95% fiducial limits
Protocol: Newborn and adult Sprague-Dawley rats (˜250 g) were used (Harlam, Italy). All experiments complied with the national guidelines and were approved by the regional ethics committee.
The irritant effect (induction of wiping movements) of capsaicin was assessed by applying capsaicin 0.1% (50 μl) on the rat conjunctiva and the number of wiping movements was recorded during the 60 s period that followed the application. In another set of experiments, the rats were treated intraperitoneally with different doses of Ia and Ic and capsaicin-induced wiping was studied.

T1 sequence (O35433 whole entry): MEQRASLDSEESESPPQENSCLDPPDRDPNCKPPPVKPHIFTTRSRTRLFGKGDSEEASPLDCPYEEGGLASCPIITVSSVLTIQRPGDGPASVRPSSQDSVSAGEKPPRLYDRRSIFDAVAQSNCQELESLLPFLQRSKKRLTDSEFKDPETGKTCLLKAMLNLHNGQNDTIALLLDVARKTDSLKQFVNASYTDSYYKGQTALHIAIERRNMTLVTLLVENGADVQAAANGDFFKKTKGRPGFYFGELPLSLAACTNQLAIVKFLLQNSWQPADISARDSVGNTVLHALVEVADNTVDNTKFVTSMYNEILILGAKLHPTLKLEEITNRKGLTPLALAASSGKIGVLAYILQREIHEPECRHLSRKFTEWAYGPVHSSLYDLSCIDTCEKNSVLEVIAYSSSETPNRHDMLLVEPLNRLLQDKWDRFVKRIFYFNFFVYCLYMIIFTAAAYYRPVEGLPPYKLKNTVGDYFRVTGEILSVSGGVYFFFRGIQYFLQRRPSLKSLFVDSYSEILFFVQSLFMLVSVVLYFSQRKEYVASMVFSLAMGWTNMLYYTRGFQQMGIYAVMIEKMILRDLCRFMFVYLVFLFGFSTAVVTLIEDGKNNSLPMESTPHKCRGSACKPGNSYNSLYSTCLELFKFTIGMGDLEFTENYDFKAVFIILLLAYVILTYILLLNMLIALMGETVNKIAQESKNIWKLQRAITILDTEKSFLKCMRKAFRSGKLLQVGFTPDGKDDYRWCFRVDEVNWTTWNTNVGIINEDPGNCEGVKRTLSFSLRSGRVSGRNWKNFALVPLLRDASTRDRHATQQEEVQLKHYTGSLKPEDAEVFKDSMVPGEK

| Compound | IC50 (vanilloid TRPV1 receptor [1]) [nM] | concentration giving complete inhibition of the response to capsaicin (vanilloid TRPV1 receptor [1]) [µM] | threshold concentration that produced an inhibitory effect (vanilloid TRPV1 receptor [1]) [nM] | Mobilization of [Ca2+]i evoked by KCl [2] | effect on capsaicin-induced wiping in rats (vanilloid TRPV1 receptor [3]) | ED50 capsaicin-induced wiping (vanilloid TRPV1 receptor [3]) |
| --- | --- | --- | --- | --- | --- | --- |
| COc1cc(CNC(=S)NCc2ccc(C(C)(C)C)cc2)c(I)cc1O [Ia, 1-(4-tert-butyl)-3-(2-iodo-4-hydroxy-5-methoxybenzyl) thiourea] | 3.48 | 0.1 | 0.1 | not affected | significantly reduced | 2.76 (2.05-3.35) mg/kg |
| COc1cc(CNC(=S)NCc2ccc(C(C)(C)C)cc2)c(Cl)cc1O [Ib, 1-(4-tert-butyl)-3-(2-chloro-4-hydroxy-5-methoxybenzyl) thiourea] | 3.86 |  | 0.1 | not affected |  |  |
| COc1cc(CNC(=S)NCc2ccc(C(F)(F)F)cc2)c(I)cc1O [Ic, 1-(4-trifluoromethyl)-3-(2-iodo-4-hydroxy-5-methoxybenzyl) thiourea] | 70 | 3 | 1 | not affected | significantly reduced | 7.20 (6.34-7.89) mg/kg |
| Oc1cc2c(cc1O)CN(C(=S)NCCc1ccc(Cl)cc1)CCC2 [capsazepine, reference compound] | 2340 |  |  |  |  |  |
